Results on three compounds are retold here after patent publication US7749530B2, “Kinase inhibitors” (Allergan, Inc., priority 2005, dated 2010).

This data set is described as follows: in vitro release study of TKI from ocular implants (polymer composites). The conditions noted are these: for burst release at day 1 / period of release at the stated rate: formulation of 50% polymer (RG755 or RG504) and 50% TKI; for time over which the ocular composite continues to release the TKI / release of the TKI from the ocular implant (percent of TKI): phosphate buffered saline release medium pH 7.4, 37° C.; for release of the TKI from the ocular implant (percent of TKI): within 30 days. The class given is physicochemical. The procedure: The in vitro release study was carried out in an incubator at 37° C. shaking at 120 rpm.
The release medium was 0.02% Polysorbate 80 containing 10 mM phosphate buffered saline, pH7.4. The medium and implants were placed in 20 mL scintillation vials. At given time points, the medium containing released drug was collected and replaced with fresh medium. The concentration of the compound in the release medium was analyzed using HPLC.

Take `Cc1cc(C(=O)Nc2cccc(C(=O)c3ccc4c(c3)NC(=O)C4=CNc3ccc(CN4CCCC4)cc3)c2)n(C)n1` [Example 206, 2,5-Dimethyl-2H-pyrazole-3-carboxylic acid (3-{2-oxo-3-[(4-pyrrolidin-1-ylmethyl-phenylamino)-methylene]-2,3-dihydro-1H-indole-6-carbonyl}-phenyl)-amide]: the “burst release at day 1” value is “minimal burst release”, the “period of release at the stated rate” value is listed as “approximately 50 days”, the “time over which the ocular composite continues to release the TKI” value is reported as > 6 months and the “release of the TKI from the ocular implant (percent of TKI)” value (from here on “release of the TKI … (percent of TKI)”) is on record as 2-12%.

As for `Cc1cc(C(=O)Nc2cccc(C(=O)c3ccc4c(c3)NC(=O)C4=CNc3ccc(CCCC(=O)O)cc3)c2)n(C)n1` [Example 324, 4-{4-[(6-{3-[(2,5-Dimethyl-2H-pyrazole-3-carbonyl)-amino]-benzoyl}-2-oxo-1,2-dihydro-indol-3-ylidenemethyl)-amino]-phenyl}-butyric acid], the “time over which the ocular composite continues to release the TKI” value is > 6 months and the “release of the TKI … (percent of TKI)” value is reported as 2-8%.

Take `Cc1ccoc1C(=O)Nc1cccc(C(=O)c2ccc3c(c2)NC(=O)C3=CNc2ccc(CCC(=O)[O-])cc2)c1.[Na+]` [Example 378, 3-{4-[(6-{3-[(3-Methyl-furan-2-carbonyl)-amino]-benzoyl}-2-oxo-1,2-dihydro-indol-3-ylidenemethyl)-amino]-phenyl}-propionic acid, sodium salt]: the “burst release at day 1” value is “minimal burst release”, the “period of release at the stated rate” value was “approximately 50 days”, the “time over which the ocular composite continues to release the TKI” value is given as > 6 months and the “release of the TKI … (percent of TKI)” value was 29-35%.
